Test results taken from patent US8173668B1 (Alcon Research, Ltd., priority 2007, dated 2012).
Several values for one entry are separate records, joined by “and”; a condition that tells them apart may be missing. Equal entries are not always repeated.

Tests used:
[1] = biological target: T1, B2-receptors in h-TM cells (Homo sapiens, UniProt P30411); assay: [Ca2+]i mobilization (FLIPR) in h-TM cells, agonist mode; type: cell-based; details: h-TM cells, mean ± SEM
T1 construct: B2-receptor proteins in h-TM, h-CM and h-NPE cells; endogenous in cells; host or cells: human trabecular meshwork (h-TM), human ciliary muscle (h-CM) and human non-pigmented ciliary epithelial (h-NPE) cells
T1 sequence (P30411 1-391): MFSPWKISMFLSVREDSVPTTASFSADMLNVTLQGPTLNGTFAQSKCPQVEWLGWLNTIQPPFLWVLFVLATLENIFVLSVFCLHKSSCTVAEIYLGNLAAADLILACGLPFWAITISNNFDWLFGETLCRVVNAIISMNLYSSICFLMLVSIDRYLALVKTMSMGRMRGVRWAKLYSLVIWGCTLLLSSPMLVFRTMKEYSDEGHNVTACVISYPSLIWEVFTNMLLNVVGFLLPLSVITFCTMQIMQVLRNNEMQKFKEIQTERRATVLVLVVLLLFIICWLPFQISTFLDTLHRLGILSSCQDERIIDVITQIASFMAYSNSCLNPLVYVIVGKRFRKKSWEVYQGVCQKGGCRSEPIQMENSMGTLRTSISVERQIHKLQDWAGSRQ
Procedure: (§1) On the day of the experiment, one vial of FLIPR Calcium Assay Kit dye is re-suspended in 50 mL of a FLIPR buffer consisting of Hank's Balanced Salt Solution (HBSS), 20 mM HEPES, and 2.5 mM probenecid, pH 7.4. Cells are loaded with the calcium-sensitive dye by addition of an equal volume (50 μL) to each well of the 96-well plate and incubated with dye for 1 h at 23° C. After this time, the test compound plate and cell plate are placed in the FLIPR instrument. At the beginning of an experimental run, a signal test is performed to check the basal fluorescence signal from the dye-loaded cells and the uniformity of the signal across the plate. The basal fluorescence is adjusted between 8000-12000 counts by modifying the exposure time, the camera F-stop, or the laser power. Instrument settings for a typical assay are the following: laser power 0.3-0.6 W, camera F-stop F/2, and exposure time 0.4 sec.
(§2) Fluorescence data are collected in real-time at 1.0 sec intervals for the first 60 secs and at 6.0 sec intervals for an additional 120 secs. […] The data are then analyzed using an automated, iterative, sigmoidal curve-fitting computer program to obtain the potency and intrinsic activities of the test agents as previously described (Sharif et al. J. Pharmacol. Exp. Ther. 286: 1094-1102, 1998; Sharif et al. Invest. Ophthalmol. Vis. Sci. 39:2562-2571, 1998; Kelly et al. J. Pharmacol. Exp. Ther. 304: 238-245, 2003). The sources of materials and reagents for such assays can be found in the references cited above.

[2] = test system: conscious ocular hypertensive cynomolgus monkey eyes; assay: IOP response in lasered (hypertensive) eyes of conscious cynomolgus monkeys, topical ocular; type: in vivo; details: for % Change in IOP: Table 7, dose = 30 μg
Procedure: Intraocular pressure (IOP) is determined with an Alcon Pneumatonometer (Alcon Laboratories, Inc., Fort Worth, Tex.) after light corneal anesthesia with 0.1% proparacaine. Right eyes are hypertensive as a result of laser trabeculoplasty. After a baseline IOP measurement, test compound is instilled in the right eyes only of 8-10 cynomolgus monkeys. Vehicle is instilled in the right eyes of 5-6 additional animals. Subsequent IOP measurements are taken at 1, 3, and 6 hours. IOP measurements are also taken on left eyes (normotensive and untreated) at each of these time points. The percent change in IOP from baseline is determined for each animal for every IOP measurement (Sharif et al. J. Ocular Pharmacol. Ther. 17: 305-317, 2001; May et al., J Pharmacol Exp Ther. 306: 301-309, 2003; Sharif et al. Invest. Ophthalmol. Vis. Res. 47: 4001-4010, 2006). Group mean and standard error of the mean (SEM) are calculated for each time point. […] In cases where the compound of invention has poor ocular bioavailability, the compound may need to be administered intracamerally or intravitreally in order to observe the IOP-lowering efficacy.
The IOP-lowering effect was slow to develop but significant IOP reduction was observed even 3 hours post-dosing with maximum ocular hypotension observed 16-48 hours post-dosing (Tables 6-8; FIGS. 3b-5).

[3] = biological target: human cloned B2-receptors (Homo sapiens, UniProt P30411); assay: HTRF-based assay of endogenous IP1 production in CHO cells; type: cell-based; details: CHO cells expressing human cloned B2-receptors, read-out: EC50, production of endogenous IP1 from PI turnover
[4] = biological target: T2, B2-receptors in h-CM cells (Homo sapiens, UniProt P30411); assay: [Ca2+]i mobilization (FLIPR) in h-CM cells, agonist mode; type: cell-based; details: h-CM cells, mean ± SEM
T2 construct: B2-receptor proteins in h-TM, h-CM and h-NPE cells; endogenous in cells; host or cells: human trabecular meshwork (h-TM), human ciliary muscle (h-CM) and human non-pigmented ciliary epithelial (h-NPE) cells
T2 sequence (P30411 1-391): T1 sequence (P30411 1-391)
Procedure: as §1, §2

[5] = biological target: T3, B2-receptors in h-NPE cells (Homo sapiens, UniProt P30411); assay: [Ca2+]i mobilization (FLIPR) in h-NPE cells, agonist mode; type: cell-based; details: h-NPE cells, mean ± SEM
T3 construct: B2-receptor proteins in h-TM, h-CM and h-NPE cells; endogenous in cells; host or cells: human trabecular meshwork (h-TM), human ciliary muscle (h-CM) and human non-pigmented ciliary epithelial (h-NPE) cells
T3 sequence (P30411 1-391): T1 sequence (P30411 1-391)
Procedure: as §1, §2

[6] = biological target: T4, BK B2-Receptor in h-NPE cells (Homo sapiens, UniProt P30411); assay: Antagonism of FR-190997-induced [Ca2+]i mobilization in h-NPE cells; type: cell-based; details: FR-190997 as the agonist, read-out: Antagonist Potency (Ki)
T4 construct: B2-receptor proteins in h-TM, h-CM and h-NPE cells; endogenous in cells; host or cells: human trabecular meshwork (h-TM), human ciliary muscle (h-CM) and human non-pigmented ciliary epithelial (h-NPE) cells
T4 sequence (P30411 1-391): T1 sequence (P30411 1-391)
Procedure: as §1, §2

[7] = biological target: T5, BK B2-Receptor in h-CM cells (Homo sapiens, UniProt P30411); assay: Antagonism of FR-190997-induced [Ca2+]i mobilization in h-CM cells; type: cell-based; details: FR-190997 as the agonist, read-out: Antagonist Potency (Ki)
T5 construct: B2-receptor proteins in h-TM, h-CM and h-NPE cells; endogenous in cells; host or cells: human trabecular meshwork (h-TM), human ciliary muscle (h-CM) and human non-pigmented ciliary epithelial (h-NPE) cells
Procedure: as §1, with “Instrument settings for a typical assay are the following: laser power 0.3-0.6 W, camera F-stop F/2, and exposure time 0.4 sec.” left out
as §2, with “The sources of materials and reagents for such assays can be found in the references cited above.” left out

[8] = read-out: Potency (EC50), [Ca2+]i mobilization
[9] = read-out: Intrinsic Activity (Emax, % max relative to BK)

Row | Emax ([1]; HTM, read-out: Intrinsic Activity (Emax, % max relative to BK)) [%] | EC50 [1, 8] [nM] | EC50 [3] [nM] | Emax [4, 9] [%] | EC50 [4, 8] [nM] | Emax [5, 9] [%] | EC50 [5, 8] [nM] | Ki [6] [nM] | Ki [7] | Compound | % Change in IOP ([2]; Dose 1/3 hr) [%] | % Change in IOP ([2]; Dose 1/6 hr) [%] | % Change in IOP ([2]; Dose 2/24 hr) [%] | % Change in IOP ([2]; Dose 2/48 hr) [%] | lowering of IOP ([2]; topical ocular, 0.03-600 μg/eye)
1 | 93 | 290 ± 75 | 38 | 96 | 237 ± 29 | 86 | 709 ± 54 | – | – | Cc1cc(OCc2ccccn2)c2cccc(OCc3c(Cl)ccc(N(C)C(=O)CNC(=O)/C=C/c4ccc(/C=C/c5ccncc5)nc4)c3Cl)c2n1 [Compound 1] | −12.5 ± 3.4 | −18.9 ± 6.6 | −26.6 ± 5.4 | −15.1 ± 3.9 | significant dose-dependent lowering of IOP
2 | – | – | – | – | – | – | – | 124 | 45 nM and 71 nM | Cc1nc2c(OCc3c(Cl)ccc(N(C)C(=O)CNC(=O)/C=C/c4ccc(C(=O)N(C)C)cc4)c3Cl)cccn2c1Br [FR-167344] | – | – | – | – | –
3 | – | – | – | – | – | – | – | 439 | 68 nM and 114 nM | CC(=O)Nc1ccc(/C=C/C(=O)NCC(=O)N(C)c2ccc(Cl)c(COc3cccc4ccc(C)nc34)c2Cl)cn1 [FR-173657] | – | – | – | – | –
